Laboratory results: article PMC5285354, “Cationic Net Charge and Counter Ion Type as Antimicrobial Activity Determinant Factors of Short Lipopeptides” (Frontiers in Microbiology, 2017)
Like-named read-outs stand apart in the source and are kept apart here. Where a SMILES comes first, the peptide text is derived from it. The star is where a group is joined. Myristoyl = CCCCCCCCCCCCCC(=O)*; Lauroyl = CCCCCCCCCCCC(=O)*

Tests used:
Format in all cases: cell-based
[1] = system: Pseudomonas aeruginosa (ATCC 9027); settings: ATCC 9027, 18 h
In short: (§1)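 MIC in μg/mL, read as the lowest lipopeptide level with no observable growth. Microbroth dilution followed CLSI guidance, using MH broth, 10^5 cfu/mL and 18 h at 37°C for bacterial strains, or Sabouraud Dextrose broth, 10^3 cfu/mL and 48 h at 25°C for yeasts.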

[2] = system: Candida tropicalis (PCM 2681); settings: PCM 2681, 48 h
In short: as §1

[3] = system: Staphylococcus aureus (ATCC 25923); settings: for MIC Staphylococcus aureus / MBC Staphylococcus aureus, lipopeptides without TFA counter ion / MIC Staphylococcus aureus, lipopeptides without TFA counter ion: ATCC 25923, 18 h; for MBC Staphylococcus aureus: ATCC 25923, 24 h
In short: as §1

[4] = system: Bacillus subtilis (ATCC 6633); settings: for MIC Bacillus subtillis: ATCC 6633, 18 h; for MBC Bacillus subtillis: ATCC 6633, 24 h
In short: (§2)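 Lowest lipopeptide concentration (μg/mL) with no observable growth gave the MIC, alongside MBC/MFC, by CLSI microbroth dilution. Fungi: Sabouraud dextrose broth, 10^3 cfu/mL start, 25°C for 48 h; bacteria: MH broth, 10^5 cfu/mL, 37°C for 18 h. Run in triplicate, three separate days.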

[5] = system: Candida albicans (ATCC 10231); settings: ATCC 10231, 48 h
In short: as §1

[6] = system: Klebsiella pneumoniae (ATCC 700603); settings: for MIC Klebsiella pneumoniae / MBC Klebsiella pneumoniae, lipopeptides without TFA counter ion / MIC Klebsiella pneumoniae, lipopeptides without TFA counter ion: ATCC 700603, 18 h; for MBC Klebsiella pneumoniae: ATCC 700603, 24 h
In short: as §1

[7] = system: Aspergillus brasiliensis (ATCC 16404); settings: ATCC 16404, 48 h
In short: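 CLSI broth microdilution: bacteria in Mueller-Hinton broth at 10^5 cfu/mL inoculum, 18 h at 37°C; fungi in Sabouraud Dextrose broth at 10^3 cfu/mL, 48 h at 25°C. MIC (μg/mL) is the lowest lipopeptide concentration inhibiting visible growth; triplicate on three days.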

[8] = system: Staphylococcus epidermidis (PCM 2118); settings: for MIC Staphylococcus epidermidis: PCM 2118, 18 h; for MBC Staphylococcus epidermidis: PCM 2118, 24 h
In short: as §2

[9] = system: Proteus vulgaris (PCM 2668)
In short: as §1

[10] = system: Escherichia coli (ATCC 25922); settings: for MIC Escherichia coli / MBC Escherichia coli, lipopeptides without TFA counter ion / MIC Escherichia coli, lipopeptides without TFA counter ion: ATCC 25922, 18 h; for MBC Escherichia coli: ATCC 25922, 24 h
In short: as §1

[11] = system: Enterococcus faecalis (ATCC 29212); settings: for MIC Enterococcus fecalis / MBC Enterococcus fecalis, lipopeptides without TFA counter ion / MIC Enterococcus fecalis, lipopeptides without TFA counter ion: ATCC 29212, 18 h; for MBC Enterococcus fecalis: ATCC 29212, 24 h
In short: as §2

[12] = system: Pseudomonas aeruginosa (ATCC 9027); settings: ATCC 9027, 24 h
human red blood cells = settings: 1 h
Procedure: The hemolytic activity of the lipopeptides was determined by exposing human red blood cells (4% v/v) to tested compounds at graded concentrations. Red blood cells were obtained from a healthy donor. EDTA was used to prevent the blood clotting. The plasma was removed via centrifugation and the erythrocytes were washed three times with PBS. The red blood cells were suspended in PBS and incubated with different concentrations of lipopeptides at 37°C for 1 h and centrifuged for 5 min at 1000 × g. The supernatants were transferred to a sterile 96-well plate and hemoglobin release was measured with an Epoch microplate spectrophotometer (BioTek, USA) by recording the absorbance at 550 nm. A 0.1% Triton X-100 solution was used as the positive control (100% of hemolysis) and pure PBS as the negative (0% of hemolysis). Minimum hemolytic concentration (MHC) was taken as the lowest concentration which induced 10% of hemolysis.

[13] = system: Proteus vulgaris (PCM 2668); settings: 24 h
[14] = system: Candida albicans (ATCC 10231)

CCCCCCCCCCCC(=O)N[C@@H](CCCCN)C(=O)NCC(=O)N[C@@H](CCCCN)C(=O)NCC(N)=O [C12-KGKG-NH2] (Lauroyl-KGKG-NH2)
512 mg/L: MBC Staphylococcus epidermidis [8] | MIC Enterococcus fecalis [11] | MBC Enterococcus fecalis [11]
256 µg/mL: Hemolysis HC10 (MHC), concentration of lipopeptide inducing 10% of hemolysis (human red blood cells)
256 mg/L: MIC Staphylococcus epidermidis [8]
1000 mg/L: MIC Pseudomonas aeruginosa [1] | MIC Candida tropicalis [2] | MIC Candida albicans [5] | MFC Aspergillus brasiliensis [7] | MIC Aspergillus brasiliensis [7] | MBC Pseudomonas aeruginosa [12]
64 mg/L: MIC Bacillus subtillis [4] | MBC Bacillus subtillis [4]
>2000 mg/L: MIC Proteus vulgaris ([9]; PCM 2668, TFA salt, Mueller-Hinton broth, 10^5 cfu/mL, 18 h 37°C, triplicate) | MBC Proteus vulgaris ([9]; PCM 2668, TFA salt, subculture on Mueller-Hinton II Agar, 24 h 37°C, triplicate)
2000 mg/L: MFC Candida tropicalis [2] | MIC Staphylococcus aureus [3] | MBC Staphylococcus aureus [3] | MFC Candida albicans [5] | MIC Klebsiella pneumoniae [6] | MBC Klebsiella pneumoniae [6] | MIC Escherichia coli [10] | MBC Escherichia coli [10]

CCCCCCCCCCCCCC(=O)N[C@@H](CCCCN)C(=O)NCC(N)=O [C14-KG-NH2] (Myristoyl-Lys-Gly-NH2)
128 mg/L: MFC Candida albicans [5] | MIC Candida albicans [5] | MFC Aspergillus brasiliensis [7] | MIC Aspergillus brasiliensis [7]
256 mg/L: MFC Candida albicans, lipopeptides without TFA counter ion [14] | MFC Candida tropicalis [2] | MIC Candida tropicalis [2] | MIC Candida albicans, lipopeptides without TFA counter ion [5]
16 mg/L: MIC Bacillus subtillis [4] | MBC Bacillus subtillis [4] | MIC Staphylococcus epidermidis [8] | MBC Staphylococcus epidermidis [8]
32 mg/L: MIC Pseudomonas aeruginosa [1] | MBC Staphylococcus aureus, lipopeptides without TFA counter ion [3] | MIC Staphylococcus aureus [3] | MIC Staphylococcus aureus, lipopeptides without TFA counter ion [3] | MBC Staphylococcus aureus [3] | MIC Klebsiella pneumoniae [6] | MIC Klebsiella pneumoniae, lipopeptides without TFA counter ion [6] | MBC Klebsiella pneumoniae [6] | MBC Enterococcus fecalis, lipopeptides without TFA counter ion [11] | MIC Enterococcus fecalis [11] | MIC Enterococcus fecalis, lipopeptides without TFA counter ion [11] | MBC Enterococcus fecalis [11]
64 mg/L: MBC Klebsiella pneumoniae, lipopeptides without TFA counter ion [6] | MBC Escherichia coli, lipopeptides without TFA counter ion [10] | MIC Escherichia coli [10] | MIC Escherichia coli, lipopeptides without TFA counter ion [10] | MBC Escherichia coli [10] | MBC Pseudomonas aeruginosa [12]
>512 mg/L: MBC Proteus vulgaris [13] | MIC Proteus vulgaris ([9]; 18 h)

CCCCCCCCCCCCCCCC(=O)N[C@@H](CCCCN)C(=O)N[C@@H](CCCCN)C(N)=O [C16-KK-NH2]
128 mg/L: MFC Candida tropicalis [2] | MIC Candida tropicalis [2] | MFC Candida albicans [5] | MIC Candida albicans [5] | MFC Aspergillus brasiliensis [7] | MIC Aspergillus brasiliensis [7]
16 mg/L: MIC Klebsiella pneumoniae [6] | MIC Klebsiella pneumoniae, lipopeptides without TFA counter ion [6] | MBC Klebsiella pneumoniae [6]
32 mg/L: MBC Klebsiella pneumoniae, lipopeptides without TFA counter ion [6]
>512 mg/L: MBC Proteus vulgaris [13] | MIC Proteus vulgaris ([9]; 18 h)
4 mg/L: MBC Staphylococcus aureus, lipopeptides without TFA counter ion [3] | MIC Staphylococcus aureus, lipopeptides without TFA counter ion [3] | MIC Bacillus subtillis [4] | MBC Bacillus subtillis [4] | MIC Staphylococcus epidermidis [8] | MBC Staphylococcus epidermidis [8] | MBC Escherichia coli, lipopeptides without TFA counter ion [10] | MIC Escherichia coli, lipopeptides without TFA counter ion [10] | MBC Enterococcus fecalis, lipopeptides without TFA counter ion [11] | MIC Enterococcus fecalis, lipopeptides without TFA counter ion [11]
256 mg/L: MFC Candida albicans, lipopeptides without TFA counter ion [14] | MIC Candida albicans, lipopeptides without TFA counter ion [5]
8 mg/L: MIC Pseudomonas aeruginosa [1] | MIC Staphylococcus aureus [3] | MBC Staphylococcus aureus [3] | MIC Escherichia coli [10] | MBC Escherichia coli [10] | MIC Enterococcus fecalis [11] | MBC Enterococcus fecalis [11] | MBC Pseudomonas aeruginosa [12]
